# PMC7367283, “A PIP2 substitute mediates voltage sensor-pore coupling in KCNQ activation” (Communications Biology, 2020)
# “And” between values parts separate entries of the source, which are not always exact repeats. Equal values may be shown once.
# Biological target: T1, IKs current (Chromanol 293B sensitive current) (Cavia porcellus, UniProt O70344)
# T1 construct: Single ventricular myocytes were acutely enzymatically isolated from guinea pig heart; endogenous in cells; host or cells: freshly isolated guinea pig ventricular myocytes
# T1 sequence (O70344 1-671): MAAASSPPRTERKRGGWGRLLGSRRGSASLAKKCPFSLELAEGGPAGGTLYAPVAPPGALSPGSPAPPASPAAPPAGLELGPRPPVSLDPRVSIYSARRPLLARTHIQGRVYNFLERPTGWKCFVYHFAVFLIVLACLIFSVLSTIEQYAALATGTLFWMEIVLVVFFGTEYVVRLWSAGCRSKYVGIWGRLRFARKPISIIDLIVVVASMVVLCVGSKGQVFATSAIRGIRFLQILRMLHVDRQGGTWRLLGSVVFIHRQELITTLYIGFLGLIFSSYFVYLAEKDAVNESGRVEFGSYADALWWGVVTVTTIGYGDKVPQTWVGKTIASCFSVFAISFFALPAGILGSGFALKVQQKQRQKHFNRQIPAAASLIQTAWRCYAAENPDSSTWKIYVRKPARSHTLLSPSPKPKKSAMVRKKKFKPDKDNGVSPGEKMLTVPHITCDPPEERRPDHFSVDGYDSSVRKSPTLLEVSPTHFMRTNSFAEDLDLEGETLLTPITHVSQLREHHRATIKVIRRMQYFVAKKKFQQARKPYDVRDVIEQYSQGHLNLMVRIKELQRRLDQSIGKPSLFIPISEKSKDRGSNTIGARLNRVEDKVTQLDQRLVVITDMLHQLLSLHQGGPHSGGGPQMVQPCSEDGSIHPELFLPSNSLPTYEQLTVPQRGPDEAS
# Assay: IKs measurements in isolated ventricular cells (whole-cell patch clamp);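 on IKs current against voltage, source data Fig. 7d: tail currents measured at the -20 mV return potential after each test voltage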
# Type: cell-based, guinea pig
# Design: key to IKs current against time, source data Fig. 7b: IKs current normalized to cell capacitance (current density)
# Conditions: for IKs current against voltage, source data Fig. 7d / IKs current against time, source data Fig. 7b: individual cells
# From the text: The KCNQ1 and KCNE1 complex forms the cardiac IKs channel, which is important in terminating cardiac action potentials and regulating heart rate[1],[2],[13]. We tested if CP1 modulates the IKs channel in cardiac myocytes. Similar to the results from KCNQ1 + KCNE1 expressed in Xenopus oocytes, in guinea pig ventricular myocyte CP1 enhanced IKs current (Chromanol 293B sensitive current) amplitude (Fig. 7a–c), shifted the G–V relation to more negative voltages (Fig. 7d, e), and slowed the kinetics of deactivation (Fig. 7a).
# Fig. 7 Effects of CP1 on IKs and action potentials in cardiomyocytes. a IKs currents in guinea pig ventricular myocytes in the absence and presence of 30 µM CP1 in the whole-cell patch-clamp configuration. Holding potential: −40 mV; testing potentials: −20 to +60 mV with 10-mV increment; returning potential: −20 mV. […] Guinea pig ventricular myocytes were first perfused with 10 µM CP1 and 10 µM chromanol. After APD reached steady state, 10 µM CP1 was constitutively perfused alone. Last, CP1 was washed out for near-full reversal of APD shortening. g Effects of 0.2 µM CP1 on LQT action potentials. To mimic the LQT, 100 µM moxifloxacin was applied 2 h before the treatment of CP1. h Change of action potential duration after application of different [CP1]s (n = 5–7). Tukey–Kramer ANOVA test was used to compare control cells in different CP1 concentration, # is significant at P < 0.05. Unpaired two-tailed Student t tests were used to compare control and moxifloxacin cells at different CP1 concentration: * is significant at P < 0.05.
# The use of guinea pigs was approved by the Stony Brook University Institutional Animal Care and Use Committee. Single ventricular myocytes were acutely enzymatically isolated from guinea pig heart as previously described. Guinea pigs, weighing 300–500 g, were sacrificed by peritoneal injection of sodium pentobarbitone (1 ml, 390 mg/ml). The isolated cells were stored in KB solution containing (in mM) 83 KCl, 30 K2HPO4, 5 MgSO4, 5 Na pyruvate, 5 β-OH-butyric acid, 20 creatine, 20 taurine, 10 glucose, and 0.5 EGTA, pH 7.2.
# An Axopatch 1D amplifier (Axon Instruments, Inc.) and the whole-cell patch-clamp technique were used to measure the IKs current. The patch pipette solution contained (in mM) 140 KMeSO3, 20 HEPES, 2 KCl, 5 EGTA, and 5 MgATP, pH 7.4. The external Tyrode contains (in mM) 137.7 NaCl, 2.3 NaOH, 8 KCl, 1 MaCl2, 5 HEPES, 1 CdCl2, and 10 Glucose, pH 7.4. The cells were held at −40 mV and stepped to −20 mV, then to +60 mV with an increment of 10 mV, to measure the membrane current in the absence and the presence of chromanol 293B (10 μM). The chromanol 293B sensitive current was defined as the IKs current normalized to its cell capacitance. These experimental protocols and conditions eliminate most of the other membrane currents, such as IP, INa, ICa, and INa/Ca, except IK, so that we could obtain better experiment resolution.
# Electrophysiology data were processed with IGOR (Wavemetrics, Lake Oswego, OR), Clampfit (Molecular Devices, Sunnyvale, CA), and SigmaPlot (SPSS, Inc., San Jose, CA). Normalized tail currents were plotted versus prepulse voltage and fitted with the Boltzmann function G = G0 + 1/(1 + exp(V − V1/2)/S), where G0 is the minimum conductance, V1/2 is the half-maximal voltage of activation, and S is the slope factor. Dose–response curves in Fig. 3 were fitted with the Hill equation, E = […], where EC50 is the drug concentration producing the half-maximum response and P is the Hill coefficient. In Fig. 7c, e, the EC50 values were obtained by fitting the data to IKs = IMin + (IMax − IMin) ([CP1]/([CP1] + EC50)) and V1/2 = V1/2 min + (V1/2Max − V1/2 min) ([CP1]/([CP1] + EC50)). The deactivation time course was fitted with single-exponential function. All data are expressed as mean ± SEM (n ≥ 3 or otherwise indicated). […]
smiles,measurement,setting,value
"O=S(=O)([O-])Oc1c(-c2sc3c(ccc4cccc(Cl)c43)c2OS(=O)(=O)[O-])[nH]c2ccc(Br)cc12.[Na+].[Na+] [CP1, DISODIUM 5-BROMO-2-[9-CHLORO-3-(SULFONATOOXY) NAPHTHO [1,2-B] THIEN-2-YL]-1H-INDOL-3-YL SULFATE]","IKs current against voltage, source data Fig. 7d","0.2 µM CP1, V 0 mV",0.1478 and -0.1008 and 0.4867 and 0.5994 and 0.4202 and 0.2428
same,"IKs current against voltage, source data Fig. 7d","0.2 µM CP1, V 10 mV",0.1364 and -8.00E-03 and 0.5359 and 0.687 and 0.4359 and 0.4419
same,"IKs current against voltage, source data Fig. 7d","0.2 µM CP1, V 20 mV",0.5204 and 0.1788 and 0.7643 (2×) and 0.8582 and 0.5444
same,"IKs current against voltage, source data Fig. 7d","0.2 µM CP1, V 30 mV",0.487 and 0.358 and 1.0844 and 1.2573 and 1.0686 and 0.7892
same,"IKs current against voltage, source data Fig. 7d","0.2 µM CP1, V 40 mV",1.432 and 0.5726 and 1.6914 and 1.171 and 1.2536 and 1.1694
same,"IKs current against voltage, source data Fig. 7d","0.2 µM CP1, V 50 mV",1.7002 and 1.1486 and 1.9537 (2×) and 1.6685 and 1.6372
same,"IKs current against voltage, source data Fig. 7d","0.2 µM CP1, V 60 mV",2.1519 and 1.35 and 2.301 (2×) and 1.8192 and 1.8132
same,"IKs current against voltage, source data Fig. 7d","0.2 µM CP1, V -10 mV",0.058 and -0.1764 and 0.4431 and 0.2854 and 0.2431 and 0.2625
same,"IKs current against voltage, source data Fig. 7d","0.2 µM CP1, V -20 mV",-0.0553 and -0.0272 and 0.3362 and 0.2344 and 0.1098 and 0.1296
same,"IKs current against time, source data Fig. 7b","0.2 µM CP1, time 0.5 s",-0.15 and 2.22E-03 and 0.4227 and 0.5059 and 0.5369 and 0.8337
same,"IKs current against time, source data Fig. 7b","0.2 µM CP1, time 1.5 s",1.1736 and 1.2252 and 1.6869 and 1.7762 and 1.8153 and 1.921
same,"IKs current against time, source data Fig. 7b","0.2 µM CP1, time 2.5 s",2.3476 and 2.2614 and 2.5619 and 2.5792 and 2.5781 and 2.9902
same,"IKs current against time, source data Fig. 7b","0.2 µM CP1, time 3.5 s",4.1533 and 3.1046 and 3.3699 and 3.1301 and 3.5796 and 4.2972
same,"IKs current against time, source data Fig. 7b","0.2 µM CP1, time 4.5 s",4.9536 and 3.6388 and 3.9362 and 3.649 and 4.0225 and 4.5344
same,"IKs current against voltage, source data Fig. 7d","6 µM CP1, V 0 mV",0.1828 and 0.4288 and 0.6932 and 0.8299 and 0.4703 and 1.0496
same,"IKs current against voltage, source data Fig. 7d","6 µM CP1, V 10 mV",0.4205 and 0.6933 and 0.9149 and 1.2568 and 0.6403 and 1.5345
same,"IKs current against voltage, source data Fig. 7d","6 µM CP1, V 20 mV",0.8957 and 1.1412 and 1.496 and 1.8852 and 1.1797 and 2.1199
same,"IKs current against voltage, source data Fig. 7d","6 µM CP1, V 30 mV",2.1345 and 1.6765 and 2.1151 and 2.7982 and 1.9302 and 2.5318
same,"IKs current against voltage, source data Fig. 7d","6 µM CP1, V 40 mV",3.0845 and 2.1666 and 2.3348 and 3.4682 and 2.4976 and 3.0115
same,"IKs current against voltage, source data Fig. 7d","6 µM CP1, V 50 mV",3.95 and 2.5666 and 2.4371 and 4.0362 and 3.2962 and 3.3006
same,"IKs current against voltage, source data Fig. 7d","6 µM CP1, V 60 mV",4.0182 and 2.7319 and 3.0293 and 4.3101 and 3.6782 and 3.5497
same,"IKs current against voltage, source data Fig. 7d","6 µM CP1, V -10 mV",0.0746 and 0.3017 and 0.5691 and 0.6051
same,"IKs current against time, source data Fig. 7b","6 µM CP1, time 0.5 s",2.2824 and 1.9027 and 1.3849 and 1.6373 and 2.0899 and 2.4967
same,"IKs current against time, source data Fig. 7b","6 µM CP1, time 1.5 s",5.0013 and 4.6878 and 3.7768 and 4.1793 and 4.2368 and 4.8342
same,"IKs current against time, source data Fig. 7b","6 µM CP1, time 2.5 s",7.088 and 6.1654 and 5.3805 and 5.9272 and 5.6946 and 5.9483
same,"IKs current against time, source data Fig. 7b","6 µM CP1, time 3.5 s",7.9334 and 7.0333 and 6.1833 and 7.248 and 6.5654 and 6.4263
same,"IKs current against time, source data Fig. 7b","6 µM CP1, time 4.5 s",8.5672 and 7.9674 and 7.2346 and 7.483 and 7.0133 and 6.9913
same,"IKs current against time, source data Fig. 7b","30 µM CP1, time 0.5 s",7.2666 and 7.1831 and 9.1229 and 4.6448 and 5.4151 and 6.3301 and 8.2811
same,"IKs current against time, source data Fig. 7b","30 µM CP1, time 1.5 s",8.5502 and 9.0214 and 10.3674 and 6.9314 and 7.3351 and 7.6047 and 9.524
same,"IKs current against time, source data Fig. 7b","30 µM CP1, time 2.5 s",9.051 and 9.8065 and 11.122 and 8.4037 and 8.6405 and 8.1616 and 9.9386
same,"IKs current against time, source data Fig. 7b","30 µM CP1, time 3.5 s",9.3536 and 10.9247 and 11.9708 and 9.4071 and 9.5173 and 8.9351 and 10.1733
same,"IKs current against time, source data Fig. 7b","30 µM CP1, time 4.5 s",10.006 and 11.718 and 12.1269 and 10.5686 and 10.3666 and 9.5544 and 10.5156
same,EC50,"at +60 mV, read-out: EC50 of IKs current amplitude",7.54 µM
